This series is described as follows: Pharmacokinetic interactions between QPD and lopinavir in rats. As to conditions: male, Sprague-Dawley, rat, plasma, po, 160 mg/kg. It is filed as in vivo.

As for `Cc1cccc(C)c1OCC(=O)N[C@@H](Cc1ccccc1)[C@@H](O)C[C@H](Cc1ccccc1)NC(=O)[C@H](C(C)C)N1CCCNC1=O` [lopinavir], the Tmax came out at 8 h. Besides, the total exposure AUC(0-inf) (AUC(0-inf) of lopinavir, rats, water + lopinavir 160 mg/kg i.g. (control group)) is 6090 ng·h/mL. Besides, the half-life (t1/2 of lopinavir, rats, water + lopinavir 160 mg/kg i.g. (control group)) is 1.9 h.

The Tmax is the time at which the peak concentration occurs. As usually defined, the AUC(0-inf) is total exposure, with the tail of the curve extrapolated. For orientation: half-life means the time needed for the level to fall by half in the phase considered.

These data come from article PMC7816587 (Food and Chemical Toxicology, 2021).
